The source of these data is PubChem BioAssay AID342 (DTP/NCI, 2004).

A word on the T/C: it is the ratio of treated to control.

Where “and” joins values, the source holds several entries; their conditions need not be identical. Identical values can stand only once.

For the assay, the system named is Swiss mice, Sarcoma 180 sc, mean tumor weight T/C. Nature of the assay: NCI In Vivo Anticancer Drug Screen. Data for tumor model Sarcoma 180 (subcutaneous) in Swiss mice. As to conditions: endpoint: mean tumor weight, higher = larger tumour. In a few lines:
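Readout is the ratio of treated-group measurement to vehicle-control measurement (T/C), based on survival or tumor size in mice carrying transplanted tumors.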

With `CNC=O`, the T/C reads like this: (dose: 19.87 mg/kg/injection, schedule: Q#A X014 (ip), vehicle: carboxymethylcellulose (CMC)) 107 % of control; (dose: 39.75 mg/kg/injection, schedule: Q#A X014 (ip), vehicle: carboxymethylcellulose (CMC)) 67 % of control; (dose: 79.5 mg/kg/injection, schedule: Q#A X014 (ip), vehicle: carboxymethylcellulose (CMC)) 23 % of control; (dose: 100.0 mg/kg/injection, schedule: Q#A X014 (ip), vehicle: saline) 20 % of control; (dose: 120.0 mg/kg/injection, schedule: Q01DX007 (ip), vehicle: carboxymethylcellulose (CMC)) 19 % of control; (dose: 125.0 mg/kg/injection, schedule: Q01DX007 (ip), vehicle: saline) 8 % of control and 12 % of control. Moreover, the T/C reads like this: (dose: 150.0 mg/kg/injection, schedule: Q01DX007 (ip), vehicle: carboxymethylcellulose (CMC)) 16 % of control; (dose: 150.0 mg/kg/injection, schedule: Q01DX007 (ip), vehicle: saline) 4 % of control and 7 % of control; (dose: 159.0 mg/kg/injection, schedule: Q#A X014 (ip), vehicle: carboxymethylcellulose (CMC)) 8 % of control; (dose: 175.0 mg/kg/injection, schedule: Q01DX007 (ip), vehicle: saline) 1 % of control and 5 % of control; (dose: 200.0 mg/kg/injection, schedule: Q01DX007 (ip), vehicle: carboxymethylcellulose (CMC)) 9 % of control; (dose: 200.0 mg/kg/injection, schedule: Q01DX007 (ip), vehicle: saline) 2 % of control and 3 % of control and 26 % of control. In addition, the T/C is 1 % of control and 3 % of control (dose: 225.0 mg/kg/injection, schedule: Q01DX007 (ip), vehicle: saline); 1 % of control and 2 % of control (dose: 250.0 mg/kg/injection, schedule: Q01DX007 (ip), vehicle: saline); 1 % of control (dose: 275.0 mg/kg/injection, schedule: Q01DX007 (ip), vehicle: saline); 1 % of control (dose: 325.0 mg/kg/injection, schedule: Q01DX007 (ip), vehicle: saline); 24 % of control (dose: 400.0 mg/kg/injection, schedule: Q01DX007 (ip), vehicle: saline).
